Test results from US12135333B2, “Detection kit for detecting immunosuppressors in whole blood by high performance liquid chromatography-tandem mass spectrometry and detection method thereof” (Hangzhou Calibra Diagnostics Co., Ltd., priority 2021, dated 2024).

Assays:
[1] = 14 d stability at 37° C. of immunosuppressors in sterile bovine blood with vitamin E at different concentrations; assay type: physicochemical; settings: for Decline of concentration (in words): vitamin E 1.0 mg/mL and 1.5 mg/mL
[2] = 14 d stability at 37° C. of immunosuppressors in the system suitability solution with different antioxidants (LC-MS/MS peak area); assay type: physicochemical; settings: for Change of content (in words): not adding an antioxidant, system suitability solution and internal standard solution
Description: (§1) Supernatant was taken and detected by high performance liquid chromatography-tandem mass spectrometry; and a spectrogram of the standard curve at the lowest point was shown in FIG. 1. Specific analysis conditions were as follows: gradient elution was used to an instrumental method; and the tandem mass spectrum: electrospray ionization (ESI) ion source and positive ion Multiple Reaction Monitoring (MRM) Mode were taken.
(§2) Antioxidants included 2,6-di-tert-butyl-p-cresol, vitamin E, vitamin C, β-carotene, and sodium metabisulfite.

[3] = 14 d stability at 37° C. of isotope internal standards in the internal standard solution with different antioxidants (LC-MS/MS peak area); assay type: physicochemical
Description: as §1, §2

[4] = in vitro experiments; cited from earlier work
[5] = 14 d at 37° C., vitamin E 0.5 mg/mL
[6] = 14 d at 37° C., vitamin E 1.0 mg/mL
[7] = 14 d at 37° C., vitamin E 1.5 mg/mL
[8] = 14 d at 37° C., antioxidant 2,6-di-tert-butyl-p-cresol
[9] = 14 d at 37° C., antioxidant Sodium metabisulfite
[10] = 14 d at 37° C., antioxidant Vitamin C
[11] = 14 d at 37° C., antioxidant Vitamin E
[12] = 14 d at 37° C., antioxidant β-carotene
[13] = 14 d at 37° C., free of adding antioxidant
[14] = 14 d at 37° C., antioxidant P-carotene

Compound	Sample detection concentration [1, 5] [ng/mL]	Sample detection concentration [1, 6] [ng/mL]	Decline of concentration (in words) ([1]; 14 d at 37° C.)	Sample detection concentration [1, 7] [ng/mL]	Sample detection concentration ([1]; Initial values) [ng/mL]	Peak area of system suitability solution [2, 8]	Peak area of system suitability solution [2, 9]	Peak area of system suitability solution [2, 10]	Peak area of system suitability solution [2, 11]	Peak area of system suitability solution [2, 12]	Peak area of system suitability solution [2, 13]	Change of content (in words) ([2]; 14 d at 37° C.)	Peak area of system suitability solution ([2]; Initial values)	Peak area of internal standard solution [3, 8]	Peak area of internal standard solution [3, 14]	Peak area of internal standard solution [3, 9]	Peak area of internal standard solution [3, 10]	Peak area of internal standard solution [3, 11]	Peak area of internal standard solution [3, 13]	Peak area of internal standard solution ([3]; Initial values)	further results
CO[C@H]1C[C@@H]2CC[C@@H](C)[C@@](O)(O2)C(=O)C(=O)N2CCCC[C@H]2C(=O)O[C@H]([C@H](C)C[C@@H]2CC[C@@H](OCCO)[C@H](OC)C2)CC(=O)[C@H](C)/C=C(\C)[C@@H](O)[C@@H](OC)C(=O)[C@H](C)C[C@H](C)/C=C/C=C/C=C/1C [Everolimus]	62.1	75.3	no obvious decline	75.7	80.1	3533	6256	11782	98290	3599	2401	almost dropped dramatically	111146	–	–	–	–	–	–	–	Decrease of concentration [1, 5]: 22.5%
[2H]C([2H])([2H])O[C@H]1C[C@@H]2CC[C@@H](C)[C@@](O)(O2)C(=O)C(=O)N2CCCC[C@H]2C(=O)O[C@H]([C@H](C)C[C@@H]2CC[C@@H](O)[C@H](OC)C2)CC(=O)[C@H](C)/C=C(\C)[C@@H](O)[C@@H](OC)C(=O)[C@H](C)C[C@H](C)/C=C/C=C/C=C/1C [Sirolimus-d3, sirolimus-d3]	–	–	–	–	–	–	–	–	–	–	–	–	–	7033	3308	5301	6664	62889	3768	71424	–
[2H][13C]([2H])=CC[C@@H]1/C=C(\C)C[C@H](C)C[C@H](OC)[C@H]2O[C@@](O)(C(=O)C(=O)N3CCCC[C@H]3C(=O)O[C@H](/C(C)=C/[C@@H]3CC[C@@H](O)[C@H](OC)C3)[C@H](C)[C@@H](O)C([2H])([2H])C1=O)[C@H](C)C[C@@H]2OC [Tacrolimus-13C-d4, tacrolimus-13C-d4]	–	–	–	–	–	–	–	–	–	–	–	–	–	28579	5494	5764	25618	53397	6069	60178	–
C=CC[C@@H]1/C=C(\C)C[C@H](C)C[C@H](OC)[C@H]2O[C@@](O)(C(=O)C(=O)N3CCCC[C@H]3C(=O)O[C@H](/C(C)=C/[C@@H]3CC[C@@H](O)[C@H](OC)C3)[C@H](C)[C@@H](O)CC1=O)[C@H](C)C[C@@H]2OC [Tacrolimus]	73.3	80.1	no obvious decline	79.0	79.7	27771	8044	30470	69879	8659	7408	almost dropped dramatically	74430	–	–	–	–	–	–	–	Immunological competence relative to cyclosporine A [4]: 50-100 times
